Results on 2 compounds are retold here after patent publication US20230090337A1, “PHARMACEUTICAL FORMULATIONS COMPRISING 6-CHLORO-7-(4-(4-CHLOROBENZYL)PIPERAZIN-1 -YL)-2-(1,3-DIMETHYL-1 HPYRAZOL-4-YL)-3H- IMIDAZO[4,5-B]PYRIDINE” (ELLIPSES PHARMA LTD, priority 2020, published 2023).

Where two headings read alike, the source gives them in different places.

The nature of series [1]: Excipient solubilising ability (20% w/v aqueous excipient solutions, DMSO spike, observed for precipitation). The format is physicochemical. The note with it: for solubility: aqueous with cosolvent or surfactant or cyclodextrin, kinetic from dmso stock. As for the experimental part: Promising non-ionic surfactants were further tested. Each was prepared as a 20% w/v aqueous solution.
The excipients tested were (HLB): Cremophor EL (12-14); Cremophor RH 40 (14-16); Labrasol ALF; Solutol HS15 (˜16); Poloxamer P124 (12-18); TPGS (˜13); and Gelucire 44/14 (˜11).
Initially, the concentrated DMSO solution was prepared at 30 mg/mL to give a starting concentration of 3 mg/mL of the compound of Formula (1) in the aqueous vehicle, and the concentration was reduced until a semi-solid excipient was identified which maintained a clear solution of the compound. No excipients solubilised the compound at concentrations >1.5 mg/mL in this experiment, but TPGS unexpectedly performed best—solubilising the compound at a concentration of 1.5 mg/mL in the aqueous vehicle (e.g. 100 μL portion of a 15 mg/mL solution of the compound in DMSO was added to each excipient solution to achieve the final concentration of 1.5 mg/mL). In TPGS the solution remained clear for up to 5 hours.

Another series addresses T1, Aurora A (Homo sapiens, UniProt O14965).
T1 sequence (O14965 1-403): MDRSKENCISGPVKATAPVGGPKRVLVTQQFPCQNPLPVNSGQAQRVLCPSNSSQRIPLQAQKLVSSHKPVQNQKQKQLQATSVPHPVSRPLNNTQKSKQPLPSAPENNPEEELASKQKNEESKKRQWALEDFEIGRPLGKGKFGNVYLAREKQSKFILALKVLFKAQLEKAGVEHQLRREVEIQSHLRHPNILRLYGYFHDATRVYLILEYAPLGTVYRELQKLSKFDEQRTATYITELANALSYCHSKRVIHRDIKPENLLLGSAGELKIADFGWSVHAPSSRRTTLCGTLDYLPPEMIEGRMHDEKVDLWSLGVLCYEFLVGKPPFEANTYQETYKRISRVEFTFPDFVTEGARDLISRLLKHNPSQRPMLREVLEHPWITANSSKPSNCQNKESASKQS
The note with it: cited from earlier work.

The target in the next series is Aurora B (Homo sapiens, UniProt Q96GD4). The note with it: cited from earlier work.
Aurora B, sequence (Q96GD4 whole entry): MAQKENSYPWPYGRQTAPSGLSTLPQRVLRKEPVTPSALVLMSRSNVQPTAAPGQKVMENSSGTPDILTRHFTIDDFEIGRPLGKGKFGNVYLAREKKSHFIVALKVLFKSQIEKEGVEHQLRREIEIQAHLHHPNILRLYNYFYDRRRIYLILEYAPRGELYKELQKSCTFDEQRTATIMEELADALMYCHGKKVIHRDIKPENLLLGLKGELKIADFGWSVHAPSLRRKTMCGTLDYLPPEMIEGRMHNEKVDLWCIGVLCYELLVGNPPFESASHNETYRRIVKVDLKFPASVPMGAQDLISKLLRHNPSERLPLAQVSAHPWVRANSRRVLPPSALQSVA
For a further series, the target named is T2, Aurora C (Homo sapiens, UniProt Q9UQB9).
T2 sequence (Q9UQB9 1-309): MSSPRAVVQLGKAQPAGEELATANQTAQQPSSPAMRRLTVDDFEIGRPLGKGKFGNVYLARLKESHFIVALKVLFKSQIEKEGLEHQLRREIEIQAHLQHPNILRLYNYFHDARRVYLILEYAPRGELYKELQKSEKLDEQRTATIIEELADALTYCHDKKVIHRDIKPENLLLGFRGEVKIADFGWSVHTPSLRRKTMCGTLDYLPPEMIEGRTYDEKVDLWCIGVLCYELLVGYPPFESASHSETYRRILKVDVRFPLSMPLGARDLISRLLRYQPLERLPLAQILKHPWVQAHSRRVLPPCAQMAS
The note with it: cited from earlier work.

A further series addresses T3, FLT3 kinases (Homo sapiens, UniProt P36888).
T3 sequence (P36888 27-993): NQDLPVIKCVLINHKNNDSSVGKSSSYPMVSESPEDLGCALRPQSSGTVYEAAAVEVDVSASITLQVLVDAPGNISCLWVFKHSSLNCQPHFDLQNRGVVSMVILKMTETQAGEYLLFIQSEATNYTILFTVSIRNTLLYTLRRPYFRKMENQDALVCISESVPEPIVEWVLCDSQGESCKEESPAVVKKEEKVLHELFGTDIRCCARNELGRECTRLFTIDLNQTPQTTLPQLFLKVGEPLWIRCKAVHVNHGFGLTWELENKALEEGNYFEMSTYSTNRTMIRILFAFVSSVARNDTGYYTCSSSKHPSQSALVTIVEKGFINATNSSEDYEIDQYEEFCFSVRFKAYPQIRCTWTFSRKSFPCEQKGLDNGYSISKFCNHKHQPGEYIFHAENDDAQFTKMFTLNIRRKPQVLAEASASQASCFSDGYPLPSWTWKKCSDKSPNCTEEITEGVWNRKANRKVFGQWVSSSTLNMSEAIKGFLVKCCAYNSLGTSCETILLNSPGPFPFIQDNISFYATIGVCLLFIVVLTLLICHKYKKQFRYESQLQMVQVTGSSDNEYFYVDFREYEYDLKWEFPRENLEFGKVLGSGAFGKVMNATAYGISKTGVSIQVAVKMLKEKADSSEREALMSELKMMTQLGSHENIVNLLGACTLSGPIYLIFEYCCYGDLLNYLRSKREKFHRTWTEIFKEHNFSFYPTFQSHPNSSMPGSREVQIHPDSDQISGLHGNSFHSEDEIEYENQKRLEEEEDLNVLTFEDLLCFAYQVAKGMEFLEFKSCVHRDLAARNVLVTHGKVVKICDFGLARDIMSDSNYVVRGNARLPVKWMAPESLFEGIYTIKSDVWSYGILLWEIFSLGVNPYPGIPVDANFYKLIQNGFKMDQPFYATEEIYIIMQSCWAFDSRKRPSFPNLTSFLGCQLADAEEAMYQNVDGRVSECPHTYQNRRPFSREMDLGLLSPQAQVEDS
The note with it: cited from earlier work.

A further series has as its system cytochrome P450. The following applies: cited from earlier work.
The target of the next series is hERG (Homo sapiens, UniProt Q12809). The following applies: cited from earlier work.
hERG, sequence (Q12809 whole entry): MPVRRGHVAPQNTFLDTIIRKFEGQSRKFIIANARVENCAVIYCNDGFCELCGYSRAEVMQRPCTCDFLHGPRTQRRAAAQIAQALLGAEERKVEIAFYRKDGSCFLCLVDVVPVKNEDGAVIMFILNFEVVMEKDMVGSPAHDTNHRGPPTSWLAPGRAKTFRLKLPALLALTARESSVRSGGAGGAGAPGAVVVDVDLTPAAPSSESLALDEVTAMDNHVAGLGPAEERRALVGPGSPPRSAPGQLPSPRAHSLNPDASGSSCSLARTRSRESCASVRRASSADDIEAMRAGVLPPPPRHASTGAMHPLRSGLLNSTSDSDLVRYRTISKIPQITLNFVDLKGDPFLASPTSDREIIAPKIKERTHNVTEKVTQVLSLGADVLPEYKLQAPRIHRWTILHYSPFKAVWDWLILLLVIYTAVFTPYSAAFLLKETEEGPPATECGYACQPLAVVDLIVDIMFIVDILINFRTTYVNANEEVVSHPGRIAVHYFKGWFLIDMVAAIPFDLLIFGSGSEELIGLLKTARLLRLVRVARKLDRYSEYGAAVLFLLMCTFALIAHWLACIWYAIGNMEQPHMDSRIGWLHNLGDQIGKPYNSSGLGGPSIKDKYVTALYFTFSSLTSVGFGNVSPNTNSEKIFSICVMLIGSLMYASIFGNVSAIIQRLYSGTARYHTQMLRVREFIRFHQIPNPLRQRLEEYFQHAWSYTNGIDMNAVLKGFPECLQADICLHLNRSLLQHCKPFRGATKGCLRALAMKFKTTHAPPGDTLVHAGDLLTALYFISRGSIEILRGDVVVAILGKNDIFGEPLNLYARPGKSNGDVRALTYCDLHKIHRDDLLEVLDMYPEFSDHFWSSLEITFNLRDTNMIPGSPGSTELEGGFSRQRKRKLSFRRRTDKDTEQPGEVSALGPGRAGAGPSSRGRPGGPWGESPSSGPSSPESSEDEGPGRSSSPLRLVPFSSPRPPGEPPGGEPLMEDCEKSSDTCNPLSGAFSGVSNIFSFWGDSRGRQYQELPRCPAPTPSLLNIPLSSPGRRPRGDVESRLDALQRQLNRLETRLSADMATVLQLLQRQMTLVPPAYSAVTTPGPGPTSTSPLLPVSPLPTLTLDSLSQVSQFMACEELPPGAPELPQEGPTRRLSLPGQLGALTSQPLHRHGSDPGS
Series [2] is described as follows: Solubility of the compound of Formula (1) in non-ionic surfactants. The format is physicochemical. The following applies: thermodynamic from solid. As for the experimental part:
Approximately 3 mg of the compound of Formula (1) (monofumarate) was weighed out into clean HLPC vials. Various non-ionic surfactants were added in 200 or 300 μL portions up to 1 ml in total. After each addition, the sample was with vortexed (2×30 seconds) sonicated for 6 minutes, and once 1 ml total had been added the sample was kept in an oven at 45° C. for 40 minutes before being cooled to RT to aid dissolution. Observations are provided below:
Those excipients that have a melting point above ambient temperature were heated to above their melting point (e.g. 50° C.-70° C.) and observations were made in the liquid phase.

Series [3] is described as follows: Aqueous solubility of salt versus free base. The format is physicochemical.
Series [4] can be described thus: Stability / hygroscopicity of salts. The format is physicochemical. The note with it: e.g. due to lower hygroscopicity.

Consider `Cc1nn(C)cc1-c1nc2c(N3CCN(Cc4ccc(Cl)cc4)CC3)c(Cl)cnc2[nH]1` [compound of Formula (1), 6-chloro-7-(4-(4-chlorobenzyl)piperazin-1-yl)-2-(1,3-dimethyl-1H-pyrazol-4-yl)-3H-imidazo[4,5-b]pyridine], for which the “time the suspension remained stable” value in series [1] (20% w/v aqueous Gelucire 44/14, 1.5 mg/mL) was “at least 10 days”; in [1] (20% w/v aqueous Poloxamer P124, 1.5 mg/mL), “at least 10 days”. The solubility is 1.5 mg/mL in series [1] (20% w/v aqueous TPGS solution, 20% w/v aqueous TPGS, 100 μL DMSO solution added to 900 μL excipient solution, read-out: concentration solubilised (clear solution) in the aqueous vehicle) and at most 1.5 mg/mL in series [1] (20% w/v aqueous Cremophor EL, Cremophor RH 40, Labrasol ALF, Solutol HS15, Poloxamer P124, TPGS, Gelucire 44/14, read-out: concentration solubilised by any tested excipient). Moreover, in series [1] (20% w/v aqueous TPGS, 1.5 mg/mL), the “time the solution remained clear” value is listed as “up to 5 hours”. Further, the “activity against Aurora A” value at Aurora A is on record as “high activity”. Further, the “activity against Aurora B” value on Aurora B is recorded as “high activity”. Moreover, the “activity against Aurora C” value on Aurora C is listed as “high activity”. The “activity against FLT3 kinases” value at FLT3 kinases is reported as “high activity”. The “interaction with cytochrome P450 activity” value in the series with cytochrome P450 was “minimal interaction”. For the same compound, on hERG, the “interaction with hERG” value is given as “minimal interaction”.

On to `Cc1nn(C)cc1-c1nc2c(N3CCN(Cc4ccc(Cl)cc4)CC3)c(Cl)cnc2[nH]1.O=C(O)/C=C/C(=O)O` [compound of Formula (1) fumarate, 6-chloro-7-(4-(4-chlorobenzyl)piperazin-1-yl)-2-(1,3-dimethyl-1H-pyrazol-4-yl)-3H-imidazo[4,5-b]pyridine fumarate], for which the solubility at 40 min in series [2] (Capryol 90 (non-ionic surfactant), oil or lipid, in Capryol 90 (fatty acid ester)) was under 4.6 mg/mL; in series [2] (Capryol PC MG (non-ionic surfactant), oil or lipid, in Capryol PC MG (fatty acid ester)), under 3.6 mg/mL; in [2] (Cremophor EL (non-ionic surfactant), organic solvent or mixture, in Cremophor EL (glycerol derivative)) it was under 4.9 mg/mL; in [2] (Cremophor RH40 (non-ionic surfactant), organic solvent or mixture, in Cremophor RH40 (glycerol derivative)), under 4.4 mg/mL; in series [2] (Gelucire 44/14 (non-ionic surfactant), organic solvent or mixture, in Gelucire 44/14 (fatty acid ester/glycerol derivative)), under 3.5 mg/mL; in series [2] (Gelucire 50/13 (non-ionic surfactant), organic solvent or mixture, in Gelucire 50/13 (fatty acid ester/glycerol derivative)) it was under 2.7 mg/mL. The solubility at 40 min was under 4.5 mg/mL in series [2] (Kollisolv P124 (non-ionic surfactant), organic solvent or mixture, in Kollisolv P124 (co-polymer)); under 2.1 mg/mL in [2] (Labrafac PC (non-ionic surfactant), oil or lipid, in Labrafac PC (fatty acid ester)); under 5 mg/mL in series [2] (Labrafil 1944 (non-ionic surfactant), oil or lipid, in Labrafil 1944 (glycerol derivative)); under 5.5 mg/mL in [2] (Labrafil 2125 (non-ionic surfactant), oil or lipid, in Labrafil 2125 (glycerol derivative)); under 3.5 mg/mL in [2] (Labrasol ALF (non-ionic surfactant), organic solvent or mixture, in Labrasol ALF (glycerol derivative)); under 3.2 mg/mL in series [2] (Miglyol 812N (non-ionic surfactant), oil or lipid, in Miglyol 812N (glycerol derivative)). In addition, the solubility at 40 min in series [2] (Softisan 378 (non-ionic surfactant), oil or lipid, in Softisan 378 (glycerol derivative)) was under 4.3 mg/mL; in [2] (Tween 80 (non-ionic surfactant), organic solvent or mixture, in Tween 80 (sorbitan derivative), ~3 mg monofumarate, up to 1 ml, vortexed, sonicated, 45° C. 40 min), under 3.7 mg/mL; in series [2] (Vitamin E TPGS (non-ionic surfactant), organic solvent or mixture, in Vitamin E TPGS (vitamin E derivative)), under 3.2 mg/mL. Further, the “aqueous solubility compared with free base” value in [3] was “higher aqueous solubility than the free base”. In [4], the “stability compared with other pharmaceutically acceptable salts” value is “greater stability”.
